For 17 compounds, activity coefficient results are on record in the NIST ThermoML archive (doi:10.1016/j.fluid.2009.05.007).

The structures appear in SMILES notation. Numbers after ± are expanded uncertainties.

This data set is described as follows: activity coefficient (dimensionless); of the first substance listed, at infinite dilution; xn = mol fraction of the nth substance listed. The conditions noted are these: 101 kPa, Liquid, dilutor technique, x1 = 0.

`C=CCCCCCCCC` [1-decene] + CCCCCCn1cc[n+](C)c1.F[B-](F)(F)F: the activity coefficient was determined as 54.6 ± 2.7 (318.2 K), 48.7 ± 2.4 (328.16 K) and 46 ± 2.3 (338.17 K).
In the case of `C=CCCCCCCCC` [1-decene] + CCCCn1cc[n+](C)c1.F[B-](F)(F)F, the activity coefficient by setting is: (323.16 K) 224 ± 11; (333.17 K) 207 ± 10; (343.17 K) 190 ± 9.5; (353.16 K) 180 ± 9.
For the compound `C=CCCCCC` [1-heptene] + CCCCCCn1cc[n+](C)c1.F[B-](F)(F)F, the activity coefficient by setting is: (318.11 K) 19.6 ± 0.98; (328.19 K) 19.3 ± 0.97; (338.14 K) 18.8 ± 0.94; (348.11 K) 18 ± 0.9.
For the compound `C=CCCCCC` [1-heptene] + CCCCn1cc[n+](C)c1.F[B-](F)(F)F, the activity coefficient was found to be 52 ± 2.6 (323.16 K), 50.3 ± 2.5 (333.24 K), 46.6 ± 2.3 (343.15 K) and 43.2 ± 2.2 (353.23 K).
Regarding `CCCCCCCCCC` [decane] + CCCCCCn1cc[n+](C)c1.F[B-](F)(F)F, the activity coefficient reads like this: (318.21 K) 129 ± 6.4; (328.16 K) 115 ± 5.8; (338.14 K) 110 ± 5.5; (348.16 K) 104 ± 5.2.
Consider `CCCCCCCCCC` [decane] + CCCCn1cc[n+](C)c1.F[B-](F)(F)F, for which the activity coefficient runs as follows: (323.12 K) 620 ± 31; (343.21 K) 443 ± 22; (353.16 K) 383 ± 19.
Regarding `CCCCCCC` [heptane] + CCCCCCn1cc[n+](C)c1.F[B-](F)(F)F, the activity coefficient stood at 45 ± 2.2 (303.16 K); 42 ± 2.1 (318.14 K); 41.1 ± 2 (323.27 K); 38.9 ± 1.9 (333.11 K); 36.8 ± 1.8 (343.09 K).
Take `CCCCCCC` [heptane] + CCCCn1cc[n+](C)c1.F[B-](F)(F)F: the activity coefficient was determined as 95.8 ± 4.8 (323.16 K); 89 ± 4.5 (328.16 K); 83.8 ± 4.2 (333.14 K); 80.1 ± 4 (338.14 K); 75.3 ± 3.8 (343.22 K).
For `C=CCCCC` [hex-1-ene] + CCCCCCn1cc[n+](C)c1.F[B-](F)(F)F, the activity coefficient was 13 ± 0.65 (318.11 K), 12.1 ± 0.61 (328.19 K), 11.9 ± 0.6 (338.17 K) and 11.4 ± 0.57 (348.15 K).
In the case of `C=CCCCC` [hex-1-ene] + CCCCn1cc[n+](C)c1.F[B-](F)(F)F, the activity coefficient (323.16 K) was 30.1 ± 1.5, the activity coefficient (333.15 K) came to 27.8 ± 1.4, the activity coefficient (343.22 K) is 25.7 ± 1.3 and the activity coefficient (353.14 K) worked out at 23.9 ± 1.2.
Take `CCCCCC` [hexane] + CCCCn1cc[n+](C)c1.F[B-](F)(F)F: the activity coefficient by setting is: (323.15 K) 66.7 ± 3.3; (328.18 K) 63.3 ± 3.2; (333.2 K) 61 ± 3; (343.26 K) 54.9 ± 2.8.
For the compound `CCCCCCCCC` [nonane] + CCCCCCn1cc[n+](C)c1.F[B-](F)(F)F, the activity coefficient (318.21 K) was 88 ± 4.4, the activity coefficient (328.16 K) is 81.2 ± 4.1, the activity coefficient (338.14 K) was 76.7 ± 3.8 and the activity coefficient (348.16 K) worked out at 72.9 ± 3.6.
For `CCCCCCCCC` [nonane] + CCCCn1cc[n+](C)c1.F[B-](F)(F)F, the activity coefficient (323.12 K) was found to be 334 ± 17, the activity coefficient (343.21 K) is 270 ± 14 and the activity coefficient (353.16 K) turned out to be 225 ± 11.
Take `C=CCCCCCC` [oct-1-ene] + CCCCCCn1cc[n+](C)c1.F[B-](F)(F)F: the activity coefficient runs as follows: (318.11 K) 29.4 ± 1.5; (328.19 K) 28.1 ± 1.4; (338.14 K) 27.2 ± 1.4; (348.11 K) 25.8 ± 1.3.
Take `C=CCCCCCC` [oct-1-ene] + CCCCn1cc[n+](C)c1.F[B-](F)(F)F: the activity coefficient is, setting by setting: (323.16 K) 88.6 ± 4.4; (333.24 K) 84.8 ± 4.2; (343.15 K) 78.8 ± 3.9; (353.23 K) 74.2 ± 3.7.
Take `CCCCCCCC` [octane] + CCCCCCn1cc[n+](C)c1.F[B-](F)(F)F: the activity coefficient reads like this: (303.16 K) 69.6 ± 3.5; (318.14 K) 62.3 ± 3.1; (323.27 K) 59.5 ± 3; (333.11 K) 56 ± 2.8; (343.09 K) 52.5 ± 2.6.
Regarding `CCCCCCCC` [octane] + CCCCn1cc[n+](C)c1.F[B-](F)(F)F, the activity coefficient amounted to 170 ± 8.5 (323.16 K); 160 ± 8 (328.16 K); 155 ± 7.7 (333.14 K); 146 ± 7.3 (338.14 K); 143 ± 7.1 (343.22 K).
